Data on three molecules can be found in paper PMC8839585, “Development of a Real-Time Pectic Oligosaccharide-Detecting Biosensor Using the Rapid and Flexible Computational Identification of Non-Disruptive Conjugation Sites (CINC) Biosensor Design Platform” (Sensors (Basel, Switzerland), 2022).

For test [1], the target named is T1, TogB (Yersinia enterocolitica, UniProt A0ACH1C7V4, D363C).
T1 construct: gene yesO; TogB without signal secretion peptide, D363C conjugated to MDCC
T1 sequence (A0ACH1C7V4 27-430 D363C): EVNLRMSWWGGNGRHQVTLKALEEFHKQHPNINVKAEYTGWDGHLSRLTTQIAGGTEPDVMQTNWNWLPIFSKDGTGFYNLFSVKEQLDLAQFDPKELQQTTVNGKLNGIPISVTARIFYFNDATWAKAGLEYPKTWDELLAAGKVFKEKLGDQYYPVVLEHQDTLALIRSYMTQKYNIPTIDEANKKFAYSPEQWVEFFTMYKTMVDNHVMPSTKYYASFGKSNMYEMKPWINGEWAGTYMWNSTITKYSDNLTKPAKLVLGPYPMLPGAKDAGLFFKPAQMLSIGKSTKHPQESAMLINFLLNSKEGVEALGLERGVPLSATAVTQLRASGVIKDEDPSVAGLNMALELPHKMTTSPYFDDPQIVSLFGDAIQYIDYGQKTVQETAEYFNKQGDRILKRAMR
Kind of test: stopped-flow fluorescence titration of MDCC-labelled purified protein. The test is classed as binding.

For test [2], the target named is T1, TogB. The experiment in a line: equilibrium fluorescence change of MDCC-labelled purified protein at […] ligand (n = […]). The class given is binding.

`O=C(O)[C@H]1O[C@H](O[C@@H]2[C@H](O)[C@@H](O)C(O)O[C@@H]2C(=O)O)[C@H](O)[C@@H](O)[C@H]1O` (stereo partly drawn) [digalUA, digalacturonic acid] gave an equilibrium dissociation constant (Kd) on TogB [1] of 6 ± 1 µM.
With `O=C(O)[C@H]1O[C@H](O[C@@H]2[C@H](O)[C@@H](O)[C@@H](O[C@@H]3[C@H](O)[C@@H](O)C(O)O[C@@H]3C(=O)O)O[C@@H]2C(=O)O)[C@H](O)[C@@H](O)[C@H]1O` (stereo partly drawn) [trigalUA, trigalacturonic acid], on TogB [2], the fluorescence change is on record as −44%.
On TogB [1], `O=C(O)C1=C[C@H](O)[C@@H](O)[C@@H](O[C@@H]2[C@H](O)[C@@H](O)C(O)O[C@@H]2C(=O)O)O1` (stereo partly drawn) [unsatdigalUA, 4,5-unsaturated digalacturonic acid] had a Kd of 1.3 ± 0.5 µM.
